US20100076015A1, “Aminopyridine Derivatives” (VANTIA LIMITED, priority 2008, published 2010)

Tests used:
Assay type in all cases: biochemical
plasma kallikrein = plasma kallikrein (Homo sapiens, UniProt P03952); experiment: Enzyme selectivity: plasma kallikrein (chromogenic substrate S-2302); conditions: chromogenic substrate S-2302, 37° C.
Experimental: (§1) Determination of Enzyme Selectivity
(§2) Selected compounds were further screened for inhibitory activity against other trypsin-like serine proteases using the appropriate enzyme and chromogenic substrate (Chromogenix AB). The activity against the following human enzymes was tested (substrate in brackets):—plasma kallikrein (S-2302), thrombin (S-2238), plasmin (S-2390) and trypsin (S-2222). The enzyme was incubated at 37° C. with the chromogenic substrate. Residual enzyme activity (initial rate of reaction) was determined by measuring the change in optical absorbance at 405 nm.

trypsin = experiment: Enzyme selectivity: trypsin (chromogenic substrate S-2222); conditions: human enzyme, chromogenic substrate S-2222, 37° C.
Experimental: as §1, §2

plasmin = plasmin (Homo sapiens, UniProt P00747); experiment: Enzyme selectivity: plasmin (chromogenic substrate S-2390); conditions: chromogenic substrate S-2390, 37° C.
Experimental: as §1, §2

Human KLK1 = molecular target: T1, Human KLK1 (Homo sapiens, UniProt P06870); experiment: Determination of the IC50 for KLK1 (fluorogenic substrate H-DVal-Leu-Arg-AFC); conditions: 37° C.
T1 construct: purchased Callbiochem (Calbiochem)
How it was run: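 Test compound at various concentrations was incubated with human KLK1 and the fluorogenic substrate H-DVal-Leu-Arg-AFC at 37° C. Absorbance change at 410 nm gave the initial reaction rate, from which IC50 was obtained.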

thrombin = thrombin (Homo sapiens, UniProt P00734); experiment: Enzyme selectivity: thrombin (chromogenic substrate S-2238); conditions: chromogenic substrate S-2238, 37° C.
Experimental: as §1, §2

Sequence of plasmin (P00747 581-810 limits assumed): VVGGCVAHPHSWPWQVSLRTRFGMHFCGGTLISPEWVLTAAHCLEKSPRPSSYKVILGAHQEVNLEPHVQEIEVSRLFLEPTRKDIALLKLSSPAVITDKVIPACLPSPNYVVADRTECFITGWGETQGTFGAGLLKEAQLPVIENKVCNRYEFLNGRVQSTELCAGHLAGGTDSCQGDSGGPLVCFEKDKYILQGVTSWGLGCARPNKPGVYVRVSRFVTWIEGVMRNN
Sequence of plasmin (P00747 97-580 partner limits assumed): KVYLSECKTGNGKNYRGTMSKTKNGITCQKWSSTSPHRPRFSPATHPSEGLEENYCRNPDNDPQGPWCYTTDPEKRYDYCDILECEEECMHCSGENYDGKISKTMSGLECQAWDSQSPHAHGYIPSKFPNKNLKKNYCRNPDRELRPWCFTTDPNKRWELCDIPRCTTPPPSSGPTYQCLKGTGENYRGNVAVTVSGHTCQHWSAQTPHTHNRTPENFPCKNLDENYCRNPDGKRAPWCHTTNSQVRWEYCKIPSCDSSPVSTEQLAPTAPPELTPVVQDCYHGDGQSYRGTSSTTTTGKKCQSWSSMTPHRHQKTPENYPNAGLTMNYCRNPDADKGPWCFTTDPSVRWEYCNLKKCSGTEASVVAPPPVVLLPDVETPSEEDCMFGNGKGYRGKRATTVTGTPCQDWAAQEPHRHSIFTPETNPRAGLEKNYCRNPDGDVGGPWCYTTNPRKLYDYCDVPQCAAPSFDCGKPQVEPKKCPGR
Sequence of plasma kallikrein (P03952 20-638): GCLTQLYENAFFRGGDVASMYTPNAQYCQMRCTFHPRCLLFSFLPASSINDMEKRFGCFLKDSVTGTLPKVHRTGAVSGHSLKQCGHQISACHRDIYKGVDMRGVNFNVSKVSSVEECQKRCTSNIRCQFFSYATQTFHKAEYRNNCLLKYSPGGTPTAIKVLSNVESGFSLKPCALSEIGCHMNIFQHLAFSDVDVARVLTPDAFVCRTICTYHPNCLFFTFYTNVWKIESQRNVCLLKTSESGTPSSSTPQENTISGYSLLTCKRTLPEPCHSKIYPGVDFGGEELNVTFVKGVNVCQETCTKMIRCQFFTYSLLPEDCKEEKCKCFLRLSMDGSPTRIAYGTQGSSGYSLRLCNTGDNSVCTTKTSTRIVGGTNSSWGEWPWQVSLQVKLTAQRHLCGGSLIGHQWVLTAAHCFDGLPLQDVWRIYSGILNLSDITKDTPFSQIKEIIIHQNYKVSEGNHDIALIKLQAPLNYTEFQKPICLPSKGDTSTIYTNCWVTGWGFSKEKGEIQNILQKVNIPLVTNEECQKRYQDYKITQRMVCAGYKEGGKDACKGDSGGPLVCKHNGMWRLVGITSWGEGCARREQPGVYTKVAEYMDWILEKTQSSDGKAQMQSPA
T1 sequence (P06870 25-262): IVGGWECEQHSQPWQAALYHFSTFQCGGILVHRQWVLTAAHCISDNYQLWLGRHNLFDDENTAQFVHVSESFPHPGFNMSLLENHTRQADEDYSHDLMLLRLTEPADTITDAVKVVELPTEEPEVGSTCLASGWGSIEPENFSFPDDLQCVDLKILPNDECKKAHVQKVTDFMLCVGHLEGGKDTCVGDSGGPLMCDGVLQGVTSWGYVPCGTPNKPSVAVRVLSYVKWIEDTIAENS

| Compound | IC50 (plasma kallikrein) | IC50 (trypsin) | IC50 (plasmin) | IC50 (Human KLK1) | IC50 (thrombin) |
| --- | --- | --- | --- | --- | --- |
| Cc1cc(C)c(C(=O)N[C@@H](Cc2cccc(C(F)(F)F)c2)C(=O)NCc2ccc(N)nc2C)[nH]1 [Example 277, 3,5-Dimethyl-1H-pyrrole-2-carboxylic acid [(S)-1-[(6-amino-2-methyl-pyridin-3-ylmethyl)-carbamoyl]-2-(3-trifluoromethyl-phenyl)-ethyl]-amide] | > 10 µM | > 10 µM | > 10 µM | 0.0009 µM | > 10 µM |
| CCC(C)[C@@H](N)C(=O)N[C@@H](Cc1ccccc1C(F)(F)F)C(=O)NCc1ccc(N)nc1 (stereo partly drawn) [Example 25, (R)-2-Amino-3-methyl-pentanoic acid [(S)-1-[(6-amino-pyridin-3-ylmethyl)-carbamoyl]-2-(2-trifluoromethyl-phenyl)-ethyl]-amide] | > 10 µM | > 10 µM | > 10 µM | 0.0098 µM | > 10 µM |
| CCC(C)[C@@H](N)C(=O)N[C@@H](CC1CCCCC1)C(=O)NCc1ccc(N)nc1 (stereo partly drawn) [Example 20, (R)-2-Amino-3-methyl-pentanoic acid {(S)-1-[(6-amino-pyridin-3-ylmethyl)-carbamoyl]-2-cyclohexyl-ethyl}-amide] | > 10 µM | > 10 µM | > 10 µM | 0.0043 µM | > 10 µM |
| CN(C)[C@H](Cc1ccccc1)C(=O)N[C@@H](Cc1ccc(Cl)c(Cl)c1)C(=O)NCc1ccc(N)nc1 [Example 400, (R)—N-[(S)-1-[(6-Amino-pyridin-3-ylmethyl)-carbamoyl]-2-(3,4-dichloro-phenyl)-ethyl]-2-dimethylamino-3-phenyl-propionamide] | > 10 µM | > 10 µM | > 10 µM | 0.0017 µM | > 10 µM |
| Cc1cccc(C[C@H](NC(=O)c2[nH]c(C)cc2C)C(=O)NCc2ccc(N)nc2)c1 [Example 234, 3,5-Dimethyl-1H-pyrrole-2-carboxylic acid {(S)-1-[(6-amino-pyridin-3-ylmethyl)-carbamoyl]-2-m-tolyl-ethyl}-amide] | > 10 µM | > 10 µM | > 10 µM | 0.0032 µM | > 10 µM |
| CC(C)N(C)[C@@H](C)C(=O)N(C)[C@@H](CC1CCCCC1)C(=O)NCc1ccc(N)nc1 [Example 437, (S)—N-{(S)-1-[(6-Amino-pyridin-3-ylmethyl)-carbamoyl]-2-cyclohexyl-ethyl}-2-(isopropyl-methyl-amino)-N-methyl-propionamide] | > 10 µM | > 10 µM | > 10 µM | 0.0042 µM | > 10 µM |
| Nc1ccc(CNC(=O)[C@H](Cc2ccc(Cl)c(Cl)c2)NC(=O)[C@H](N)Cc2ccc(Cl)cc2)cn1 [Example 59, (R)-2-Amino-N-[(S)-1-[(6-amino-pyridin-3-ylmethyl)-carbamoyl]-2-(3,4-dichloro-phenyl)-ethyl]-3-(4-chloro-phenyl)-propionamide] | > 10 µM | > 10 µM | > 10 µM | 0.00056 µM | > 10 µM |
| CC(C)N(CC(=O)N[C@@H](Cc1ccc(F)c(F)c1)C(=O)NCc1ccc(N)nc1)C(C)C [Example 157, (S)—N-(6-Amino-pyridin-3-ylmethyl)-3-(3,4-difluoro-phenyl)-2-(2-diisopropylamino-acetylamino)-propionamide] | > 10 µM | > 10 µM | > 10 µM | 0.123 µM | > 10 µM |
| Nc1ccc(CNC(=O)[C@H](Cc2cccc(C(F)(F)F)c2)NC(=O)c2ccc[nH]2)cn1 [Example 229, 1H-Pyrrole-2-carboxylic acid [(S)-1-[(6-amino-pyridin-3-ylmethyl)-carbamoyl]-2-(3-trifluoromethyl-phenyl)-ethyl]-amide] | > 10 µM | > 10 µM | > 10 µM | 0.0034 µM | > 10 µM |
